≈ marks a conversion by molar mass, not a printed value. Where two headings read alike, the source gives them in different places.
Legend:
[1] = set-up: concentration or dose not given beside the values; conditions: cited from earlier work
[2] = set-up: concentration or dose not given beside the values; conditions: cited from earlier work; remark: listed apart in the source
physchem [3] = test: physchem
Method: Measurements were taken via LC/MS.
Stir bars were removed and samples centrifuged at 15,000 g for 15 minutes to separate the phases, and pipette and syringe were used to remove the upper (octanol) and lower (buffer) phases to empty tubes, respectively. Aliquots of 5 ni, were taken from upper phases and diluted with 495 ni, of methanol. Aliquots of 50 ni, were taken from lower phases and diluted with 450 ni, of methanol. Reference solutions of progesterone or metopolol were also prepared and tested as standards.

[4] = Solubility determination in PBS by LC/MS/MS; conditions: for solubility at 2 h: kinetic from dmso stock
[5] = rats, 300 μmol/kg intraperitoneally immediately after uranyl acetate; cited from earlier work
physchem [6] = conditions: 25 °C, kinetic from dmso stock
[7] = PBS pH 4.0, 25 °C, pH 4, aqueous buffer
[8] = PBS pH 7.4, 25 °C, pH 7.4, aqueous buffer

Row | SMILES | logD at 1 h (physchem [3]; pH 7.4) | solubility at 2 h [4, 7] [µM] | solubility at 2 h [4, 8] [µM] | Rodent ICE [1] | other results
1 | COCCOCCOCCOCCOc1ccc(C2=N[C@@](C)(C(=O)O)CS2)c(O)c1 [Example C, (S)-2-(4-(2,5,8,11-tetraoxamidecan-13-yloxy)-2-hydroxyphenyl)-4-methyl-4,5-dihydrothiazole-4-carboxylic acid] |  |  |  | 12.0 ± 1.5% | Primate ICE [2]: 9.8 ± 1.9%
2 | COCCOCCOc1cccc(C2=N[C@@](C)(C(=O)O)CS2)c1O [Example D, (S)-2-(2-hydroxy-3-(2-(2-methoxyethoxy)ethoxy)phenyl)-4-methyl-4,5-dihydrothiazole-4-carboxylic acid] |  |  |  | 15.1 ± 2.0% | Primate ICE [2]: 22.5 ± 6.4%
3 | COCCc1ccc(OCC(O)CNC(C)C)cc1 (centres unmarked) [metopolol] |  |  |  |  | LogD (physchem [3]; pH 7.4): −0.27
4 | COCCOCCOc1ccc(C2=NC(C)(C(=O)O)CN2)c(O)c1 (centres unmarked) [Example 3, 2-(2-hydroxy-4-(2-(2-methoxyethoxy)ethoxy)phenyl)-4-methyl-4,5-dihydro-1H-imidazole-4-carboxylic acid] | -1.87 | 302 (≈ 102 µg/mL) | 299 (≈ 101 µg/mL) |  | 
5 | CC(=O)[C@H]1CC[C@H]2[C@@H]3CCC4=CC(=O)CC[C@]4(C)[C@H]3CC[C@]12C [progesterone] |  |  |  |  | logD at 1 h (physchem [3]): 3.71
6 | COCCOCCOCCOCCOc1cccc(C2=N[C@@](C)(C(=O)O)CS2)c1O [Example F, (S)-2-(3-(2,5,8,11-tetraoxamidecan-13-yloxy)-2-hydroxyphenyl)-4-methyl-4,5-dihydrothiazole-4-carboxylic acid] |  |  |  | 12.4 ± 1.7% | Primate ICE [2]: 9.6 ± 4.9%
7 | COCCOCCOCCOc1ccc(C2=NC(C)(C(=O)O)CO2)c(O)c1 (centres unmarked) [Example 2, 2-(2-hydroxy-4-(2-(2-(2-methoxyethoxy)ethoxy)ethoxy)phenyl)-4-methyl-4,5-dihydrooxazole-4-carboxylic acid] | -1.77 | 297 (≈ 114 µg/mL) | 291 (≈ 112 µg/mL) |  | 
8 | COCCOCCOc1ccc(C2=NC(C)(C(=O)O)CO2)c(O)c1 (centres unmarked) [Example 1, 2-(2-hydroxy-4-(2-(2-methoxyethoxy)ethoxy)phenyl)-4-methyl-4,5-dihydrooxazole-4-carboxylic acid] | -1.39 | 309 (≈ 105 µg/mL) | 312 (≈ 106 µg/mL) |  | 
9 | COCCOCCOCCOc1cccc(C2=N[C@@](C)(C(=O)O)CS2)c1O [Example E, (S)-2-(2-hydroxy-3-(2-(2-(2-methoxyethoxy)ethoxy)ethoxy)phenyl)-4-methyl-4,5-dihydrothiazole-4-carboxylic acid] |  |  |  | 10.6 ± 4.4%b | Primate ICE [2]: 23.0 ± 4.1%

The next lines start with results.

Row | logD at 1 h (physchem [3]; pH 7.4) | solubility at 2 h [4, 7] [µM] | solubility at 2 h [4, 8] [µM] | SMILES | Rodent ICE [1] | other results
10 | -2.09 | 306 (≈ 104 µg/mL) | 311 (≈ 105 µg/mL) | COCCOCCOc1cccc(C2=NC(C)(C(=O)O)CN2)c1O (centres unmarked) [Example 5, 2-(2-hydroxy-3-(2-(2-methoxyethoxy)ethoxy)phenyl)-4-methyl-4,5-dihydro-1H-imidazole-4-carboxylic acid] |  | 
11 | -2.13 | 313 (≈ 120 µg/mL) | 316 (≈ 121 µg/mL) | COCCOCCOCCOc1ccc(C2=NC(C)(C(=O)O)CN2)c(O)c1 (centres unmarked) [Example 4, 2-(2-hydroxy-4-(2-(2-(2-methoxyethoxy)ethoxy)ethoxy)phenyl)-4-methyl-4,5-dihydro-1H-imidazole-4-carboxylic acid] |  | 
12 | -2.14 | 300 (≈ 110 µg/mL) | 298 (≈ 109 µg/mL) | COCCOCCOCCOc1ccc(-n2ccc(C(=O)O)n2)c(O)c1 [Example 8, 1-(2-hydroxy-4-(2-(2-(2-methoxyethoxy)ethoxy)ethoxy)phenyl)-1H-pyrazole-3-carboxylic acid] |  | 
13 |  | 7.47 (≈ 2.21 µg/mL) |  | O=C(O)Cc1ccccc1Nc1c(Cl)cccc1Cl [diclofenac] |  | Solubility at pH 7.4 ([4]; PBS pH 7.4, 25° C., 2 hours, assay upper limit 300 μM): 273.38 μM
14 | -1.45 | 307 (≈ 123 µg/mL) | 313 (≈ 125 µg/mL) | COCCOCCOCCOc1ccc(C2=N[C@@](C)(C(=O)O)CS2)c(O)c1 [Example B, (S)-2-(2-hydroxy-4-(2-(2-(2-methoxyethoxy)ethoxy)ethoxy)phenyl)-4-methyl-4,5-dihydrothiazole-4-carboxylic acid] | 5.5 ± 1.9% | Primate ICE [2]: 25.4 ± 7.4%; % Dose Cleared [5]: 22%; Uranium Excretion [5]: 626 ± 123 µg/kg; Uranium Excretion vs. Control [5]: 2.2
15 | -1.14 |  |  | COCCOCCOc1ccc(C2=N[C@@](C)(C(=O)O)CS2)c(O)c1 [Example A, (S)-2-(2-hydroxy-4-(2-(2-methoxyethoxy)ethoxy)phenyl)-4-methyl-4,5-dihydrothiazole-4-carboxylic acid] | 26.7 ± 4.7% | Primate ICE ([2]; capsule): 26.3 ± 9.9%; Primate ICE ([2]; sodium salt): 28.7 ± 12.4%; solubility at 2 h (physchem [6]; pH 4, aqueous buffer): 309 µM (≈ 110 µg/mL); solubility at 2 h (physchem [6]; pH 7.4, aqueous buffer): 305 µM (≈ 108 µg/mL)
16 | -2.24 | 294 (≈ 94.7 µg/mL) | 297 (≈ 95.7 µg/mL) | COCCOCCOc1ccc(-n2ccc(C(=O)O)n2)c(O)c1 [Example 7, 1-(2-hydroxy-4-(2-(2-methoxyethoxy)ethoxy)phenyl)-1H-pyrazole-3-carboxylic acid] |  | 
17 | -1.98 | 311 (≈ 119 µg/mL) | 311 (≈ 119 µg/mL) | COCCOCCOCCOc1cccc(C2=NC(C)(C(=O)O)CN2)c1O (centres unmarked) [Example 6, 2-(2-hydroxy-3-(2-(2-(2-methoxyethoxy)ethoxy)ethoxy)phenyl)-4-methyl-4,5-dihydro-1H-imidazole-4-carboxylic acid] |  | 

Reference: patent US20130053387A1, “DESAZADESFERROTHIOCIN AND DESAZADESFERROTHIOCIN POLYETHER ANALOGUES AS METAL CHELATION AGENTS” (FerroKin BioScience, Inc., priority 2010, published 2013)
